Measured values taken from patent EP2918282A1, “Pharmaceutical composition for the treatment of virus diseases, such as flu” (OOO "CytoNIR", priority 2014, dated 2015).

Test system: Grippevirus A/Vladivostok/2/09 (H1N1)
Assay: Survival of mice infected with a lethal dose of influenza virus, peroral treatment for 5 days
Format: in vivo, Mäuse
Details: for To-des-fälle / Überleben-de Mäuse / MLD, Tage (mittlere Lebensdauer innerhalb der Beobachtungsfrist) / Sterblichkeit % / MLD-Erhöhung, Tage / Schutzkennzahl, %: Tamiflu 30 mg/kg; for MLD-Erhöhung, Tage / Schutzkennzahl, %: versus Placebo
Excerpt: Die Wirksamkeit des Mittels wurde an einem Modell der Überlebensfähigkeit von angesteckten Versuchstieren geprüft. Die Versuchstiere wurden mit einer tödlichen Dosis des Grippevirus A/Vladivostok/2/09 (H1N1) angesteckt. Während der Forschung wurde das erfindungsgemäße Mittel 5 Tage lang peroral verabreicht.
Als Versuchstiere wurden weiße männliche Auszucht-Mäuse mit einem Körpergewicht von 16 - 18 g aus der Aufzuchtstation Rappolovo der Russischen Akademie der medizinischen Wissenschaften verwendet. Vor der Prüfung wurden die Versuchstiere einer Quarantäne in einem Vivarium im Laufe einer Woche unterzogen. Die Versuchstiere wurden unter genormten Klima-Bedingungen mit ausgewogener Fütterung gehalten. Jede Gruppe enthielt je 30 Versuchstiere.
Um eine versuchsmäßige Grippe-Infektion zu simulieren, wurde ein bestimmter Virusstamm eingesetzt. Die Versuchstiere wurden mit dem A/Vladivostok/2/09 (H1N1)-Virus in Mengen von 1 und 10 DL50 intranasal angesteckt.
Die Behandlung der angesteckten Mäuse wurde 24 Stunden nach der Ansteckung begonnen. Die Präparate wurden intragastrisch mittels einer Sonde verabreicht. Bei diesen Präparaten handelte es sich um eine Lösung in einer physiologischen Kochsalzlösung. Die Dosis des Arzneimittels wurde pro ein kg des Körpergewichts des Tieres berechnet. Die Behandlung wurde im Laufe von 5 Tagen vorgenommen. Die Wirksamkeit des Mittels wurde anhand der Überlebensraten der Tiere am 21. Tag nach der Ansteckung beurteilt.
Die erste Gruppe der Versuchstiere erhielt eine Lösung von Glutamyltryptophan und Natriumsalz der Glycyrrhizinsäure (nachfolgend GTGS); die zweite Gruppe der Tiere erhielt ein Präparat Tamiflu (Handelsnahme des Präparats Oseltamyvir) in der Dosis von 30 mg/kg; die dritte Gruppe der Tiere erhielt eine physiologische Kochsalzlösung (Placebo).

[1] = Virus-Dosis 1 (DL50), 15 animals per group, peroral day 1 to 5 after infection
[2] = Virus-Dosis 1 (DL50), peroral day 1 to 5 after infection
[3] = Virus-Dosis 10 (DL50), 15 animals per group, peroral day 1 to 5 after infection
[4] = Virus-Dosis 10 (DL50), peroral day 1 to 5 after infection
[5] = Virus-Dosis Gesamtdosis (both virus doses pooled), 30 animals, peroral day 1 to 5 after infection
[6] = Virus-Dosis Gesamtdosis (both virus doses pooled), peroral day 1 to 5 after infection
[7] = Virus-Dosis Gesamtdosis (both virus doses pooled)

CCOC(=O)C1=C[C@@H](OC(CC)CC)[C@H](NC(C)=O)[C@@H](N)C1 [Tamiflu, Oseltamyvir]
To-des-fälle [1]: 6
Überleben-de Mäuse [1]: 9
MLD, Tage (mittlere Lebensdauer innerhalb der Beobachtungsfrist) [2]: 11,7 Tage
Sterblichkeit % [2]: 40,0%
MLD-Erhöhung, Tage [2]: 1,1 Tage
Schutzkennzahl, % [2]: 25,0%
To-des-fälle [3]: 12
Überleben-de Mäuse [3]: 3
MLD, Tage (mittlere Lebensdauer innerhalb der Beobachtungsfrist) [4]: 9,0 Tage
Sterblichkeit % [4]: 80,0%
MLD-Erhöhung, Tage [4]: 1,9 Tage
Schutzkennzahl, % [4]: 14,3%
To-des-fälle [5]: 18
Überleben-de Mäuse [5]: 12
MLD, Tage (mittlere Lebensdauer innerhalb der Beobachtungsfrist) [6]: 10,4 Tage
Sterblichkeit % [6]: 60,0%
MLD-Erhöhung, Tage [7]: 1,5 Tage
Schutzkennzahl, % [7]: 18,2%
Todesfälle (virus dose 10 DL50, 30 mg/kg): 80%
